The record followed here is PubChem BioAssay (NCI).

Among the test systems are 786-0 renal; COLO 205 colon; DU-145 prostate; HS 578T breast; M14 melanoma; OVCAR-8 ovarian; RXF 393 renal; SK-MEL-2 melanoma; SN12C renal; UACC-257 melanoma.
What all share (test): NCI-60 cell line screen, 48 h

Each structure is given as a SMILES string.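 Tested at 5 concentrations; 48 h exposure; 96-well plates; endpoints linearly interpolated, else capped at highest concentration. Here, GI50 denotes the concentration required for 50% inhibition of growth. TGI: concentration producing complete growth inhibition.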

For `COc1cc(OC)c(-c2cc(=O)c3c(OC)c(OC)c(OC)c(OC)c3o2)cc1OC`, the TGI in the test with 786-0 renal, in the test with COLO 205 colon, with DU-145 prostate, with HS 578T breast, in the test with M14 melanoma and in the test on OVCAR-8 ovarian was > 100 µM throughout. The TGI with RXF 393 renal, in the test on SK-MEL-2 melanoma, in the test on SN12C renal and in the test with UACC-257 melanoma was > 100 µM each time.

Turning to `Cc1ccc(NS(=O)(=O)c2ccc(-c3cnc(C4CC4)o3)cc2)cc1`, the GI50 was 6.4 µM in the test on 786-0 renal; 3.64 µM with COLO 205 colon; 3.99 µM in the test on DU-145 prostate; 2.71 µM with HS 578T breast; 1.56 µM in the test on M14 melanoma; 5.24 µM with OVCAR-8 ovarian. For the same molecule, the GI50 with RXF 393 renal was 2.36 µM; with SK-MEL-2 melanoma it was 5.06 µM; in the test with SN12C renal, 4.1 µM; in the test on UACC-257 melanoma, 10.8 µM. Besides, the TGI in the test on 786-0 renal amounted to 21 µM; in the test with COLO 205 colon it was 16.1 µM; with DU-145 prostate it was 16.5 µM; with HS 578T breast, 13.5 µM; in the test on M14 melanoma, 11.7 µM; with OVCAR-8 ovarian, 24.3 µM. Besides, the TGI in the test on RXF 393 renal was determined as 10.7 µM; in the test on SK-MEL-2 melanoma, 18.8 µM; with SN12C renal, 17.2 µM; in the test on UACC-257 melanoma, 27.8 µM.

For the molecule `Cc1c(Cl)ccc2c1NC(=O)C2(O)CC(=O)c1ccc(Cl)cc1Cl` (stereo not given), the TGI is > 50 µM with 786-0 renal; > 50 µM in the test on COLO 205 colon; > 50 µM in the test with DU-145 prostate; 48.9 µM in the test with HS 578T breast; > 50 µM in the test with M14 melanoma; > 50 µM in the test on OVCAR-8 ovarian. Further, the TGI in the test with RXF 393 renal is 48.9 µM; in the test with SK-MEL-2 melanoma, > 50 µM; in the test with SN12C renal it was > 50 µM; in the test with UACC-257 melanoma, > 50 µM.

Take `c1ccc2c(c1)O[As](O[As]1Oc3ccccc3O1)O2`: the GI50 in the test with 786-0 renal is 3.66 µM; in the test with COLO 205 colon, 5.42 µM; in the test on DU-145 prostate, 3.96 µM; in the test with HS 578T breast it was 3.47 µM; in the test with M14 melanoma, 3.18 µM; in the test with OVCAR-8 ovarian it was 2.59 µM. The GI50 was 1.64 µM in the test with RXF 393 renal, 2.76 µM in the test with SK-MEL-2 melanoma, 3.02 µM in the test with SN12C renal and 2.07 µM in the test on UACC-257 melanoma. Moreover, the TGI in the test with 786-0 renal worked out at 15.4 µM; in the test on COLO 205 colon, 20.2 µM; with DU-145 prostate, 15.2 µM; in the test with HS 578T breast, 65.9 µM; with M14 melanoma, 15.3 µM; in the test on OVCAR-8 ovarian, 15.4 µM. Moreover, the TGI in the test with RXF 393 renal is 13 µM; in the test on SK-MEL-2 melanoma it was 8.61 µM; in the test on SN12C renal it was 14.9 µM; in the test with UACC-257 melanoma, 9.88 µM.

With `O=S(=O)(c1cccc(C(F)(F)F)c1)N1c2ccccc2-n2cccc2C1c1cccnc1` (stereo not given), the TGI was > 62.3 µM in the test on 786-0 renal; > 54.6 µM in the test with COLO 205 colon; > 55.2 µM in the test with DU-145 prostate; > 76.3 µM with HS 578T breast; > 55.8 µM in the test with M14 melanoma; > 100 µM with OVCAR-8 ovarian. The TGI is > 53.9 µM in the test on RXF 393 renal, > 52.2 µM with SK-MEL-2 melanoma, > 62.3 µM in the test on SN12C renal and > 54.6 µM in the test with UACC-257 melanoma.

Regarding `O=C(c1ccccc1)c1ccc(-c2ccc(O)cc2)cc1`, the GI50 in the test with 786-0 renal is 17.8 µM; with COLO 205 colon, 19.4 µM; in the test with DU-145 prostate it was 5.62 µM; with HS 578T breast, 17.3 µM; in the test on M14 melanoma, 2.04 µM; in the test on OVCAR-8 ovarian, 12.4 µM. Also, the GI50 with RXF 393 renal is 7.93 µM; with SK-MEL-2 melanoma it was 6.95 µM; in the test with SN12C renal it was 20.2 µM; with UACC-257 melanoma, 16 µM. For the same molecule, the TGI was > 66.8 µM in the test with 786-0 renal; 45.9 µM in the test with COLO 205 colon; 29.4 µM in the test with DU-145 prostate; > 53.3 µM with HS 578T breast; > 100 µM with M14 melanoma; 68.9 µM in the test on OVCAR-8 ovarian. Also, the TGI with RXF 393 renal was 33.2 µM; in the test on SK-MEL-2 melanoma, 61 µM; in the test on SN12C renal, > 100 µM; with UACC-257 melanoma, 66.5 µM.

Regarding `Nc1ccccc1C#C/C=C\C#Cc1ccc(F)cc1F`, the GI50 in the test with 786-0 renal was 14.7 µM; in the test on COLO 205 colon it was 29.5 µM; in the test with DU-145 prostate, 12.5 µM; in the test with HS 578T breast, 13.2 µM; in the test on M14 melanoma, 16.5 µM; in the test on OVCAR-8 ovarian it was 25.2 µM. For the same molecule, the GI50 is 18.4 µM in the test on RXF 393 renal, 23 µM in the test on SK-MEL-2 melanoma, 12.3 µM in the test on SN12C renal and 19.5 µM with UACC-257 melanoma. In addition, the TGI in the test on 786-0 renal amounted to 28.7 µM; with COLO 205 colon it was 82 µM; in the test with DU-145 prostate, 33.8 µM; in the test with HS 578T breast, 30.5 µM; in the test on M14 melanoma it was 32 µM; with OVCAR-8 ovarian it was 84.3 µM. Further, the TGI came out at 43.2 µM with RXF 393 renal, 58.1 µM in the test with SK-MEL-2 melanoma, 27.7 µM in the test on SN12C renal and 50 µM in the test on UACC-257 melanoma.

In the case of `Cn1ncc2c(Nc3ccc(Br)cc3)nc(Nc3ccc(Br)cc3)nc21`, the GI50 with 786-0 renal was 2.4 µM; in the test on COLO 205 colon, 1.65 µM; with DU-145 prostate, 3.65 µM; in the test on HS 578T breast it was 2.61 µM; in the test with M14 melanoma, 2.09 µM; with OVCAR-8 ovarian it was 4.15 µM. Further, the GI50 with RXF 393 renal is 2.81 µM; in the test with SK-MEL-2 melanoma, 2.89 µM; in the test with SN12C renal, 3.28 µM; in the test with UACC-257 melanoma, 5.32 µM. In addition, the TGI turned out to be 5.32 µM in the test on 786-0 renal; 3.2 µM in the test with COLO 205 colon; 13 µM with DU-145 prostate; 9.59 µM in the test with HS 578T breast; 4.63 µM with M14 melanoma; 63.5 µM in the test on OVCAR-8 ovarian. For the same molecule, the TGI amounted to 7.57 µM in the test with RXF 393 renal, 8.56 µM in the test on SK-MEL-2 melanoma, 12.9 µM in the test with SN12C renal and 18.8 µM with UACC-257 melanoma.
